The structures appear in SMILES notation.

This is an account of results in patent publication US9453051B2, “Cyclosporin derivatives” (priority 2011, dated 2016).

For one test, the target named is calcineurin (Homo sapiens, UniProt P62937+P63098+Q08209). The test is described as follows: Inhibition of the phosphatase activity of calcineurin (scintillation-proximity-assay, in presence of Cyp18).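 Note: calcineurin dephosphorylation of a ³³P-labelled RII phosphopeptide, captured on streptavidin-coated wells and read by scintillation counting, with uninhibited enzyme activity taken as 100%.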
For test [1], the target named is recombinant human wild type Cyp18 (Cyp18 wt) (Homo sapiens, UniProt P62937). The test is described as follows: biochemical.
recombinant human wild type Cyp18 (Cyp18 wt), sequence (P62937 whole entry): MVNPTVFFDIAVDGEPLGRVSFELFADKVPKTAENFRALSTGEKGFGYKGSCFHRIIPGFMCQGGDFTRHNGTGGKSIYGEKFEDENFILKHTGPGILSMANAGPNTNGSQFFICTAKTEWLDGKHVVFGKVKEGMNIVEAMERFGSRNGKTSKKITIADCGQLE
Description: The determination was performed on a UV/Vis spectrometer at 10° C. cuvette temperature, whereby the device is operated at 390 nm in kinetic-mode (measurement buffer: 35 mM HEPES/NaOH pH 7.8 (AppliChem A1069)). 0.58 nM recombinant human wild type Cyp18 (Cyp18 wt), 2.33 nM bovine serum albumin (BSA) and 1 mg/ml chymotrypsin (Merck) solved in 35 mM HEPES/NaOH pH 7.8 as well as different concentration of each test substance, where appropriate, were in the cuvette. The reaction was started with a stock solution of Suc-Ala-Ala-Pro-Phe-4-nitroanilide (Bachem, 10 mg/ml DMSO) as substrate so that a final substrate concentration of 32 μM resulted. The extinction-time-curves were evaluated after expiry of the fast phase of the reaction i.e. after approximately 60 seconds according to a rate equation of a first-order reaction.

Description for calcineurin: The measurement was carried out by incubation of 10 μMol of the biotinylated phosphopeptide [sequence]pSer-Val-Ala-Ala-Glu (MW=2192.0) (RH-peptide) marked with ^33P in a sample buffer (40 mM Tris-HCl, pH 7.5, 100 mM NaCl, 6 mM MgCl2, 0.5 mM dithiothreitol, 1 mM. CaCl2, 0.1 mg/ml bovine serum albumin) in presence of 50 nM calmodulin and 1.32 nM calcineurin at 30° C. for 20 min in a 96 well micro titer plate (Costar, Bodenheim, Germany). The total volume of the assay/well was 100 μl. After this reaction time a 90 μl aliquot of the reaction mixture was transferred into a scintillation cavity coated with streptavidin and incubated for 20 min at 22° C. After a washing step the RII phosphopeptide-associated ^33P radioactivity was measured in a MicroBeta Top Counter (Wallac) and the enzyme activity was indicated as average value of three measurements±S.D. The uninhibited dephosphorylation activity has been set on 100%.

On to `CC[C@@H]1NC(=O)[C@H]([C@H](O)[C@H](C)Cc2nc3nc(S)nc(S)c3[nH]2)N(C)C(=O)[C@H](C(C)C)N(C)C(=O)[C@H](CC(C)C)N(C)C(=O)[C@H](CC(C)C)N(C)C(=O)[C@@H](C)NC(=O)[C@H](C)NC(=O)[C@H](CC(C)C)N(C)C(=O)[C@H](C(C)C)NC(=O)[C@H](CC(C)C)N(C)C(=O)CN(C)C1=O` [Compound 16], for which the IC50 on calcineurin worked out at 7.5 µM; in test [1] it was 0.0151 µM. Regarding `CC[C@@H]1NC(=O)[C@H]([C@H](O)[C@H](C)Cc2nc3cc(C(=O)N[C@@H](CCC(=O)O)C(=O)N[C@@H](CCC(=O)O)C(N)=O)ccc3[nH]2)N(C)C(=O)[C@H](C(C)C)N(C)C(=O)[C@H](CC(C)C)N(C)C(=O)[C@H](CC(C)C)N(C)C(=O)[C@@H](C)NC(=O)[C@H](C)NC(=O)[C@H](CC(C)C)N(C)C(=O)[C@H](C(C)C)NC(=O)[C@H](CC(C)C)N(C)C(=O)CN(C)C1=O` [Compound 63], in test [1], the 50% inhibitory concentration (IC50) worked out at 0.0051 µM. Take `CC[C@@H]1NC(=O)[C@H]([C@H](O)[C@H](C)Cc2nc3cc(S(=O)(=O)O)cc(F)c3[nH]2)N(C)C(=O)[C@H](C(C)C)N(C)C(=O)[C@H](CC(C)C)N(C)C(=O)[C@H](CC(C)C)N(C)C(=O)[C@@H](C)NC(=O)[C@H](C)NC(=O)[C@H](CC(C)C)N(C)C(=O)[C@H](C(C)C)NC(=O)[C@H](CC(C)C)N(C)C(=O)CN(C)C1=O` [Compound 48]: the values for the 50% inhibitory concentration (IC50) (at calcineurin; in test [1]) were > 10 µM and 0.0087 µM, respectively. On to `CC[C@@H]1NC(=O)[C@H]([C@H](O)[C@H](C)Cc2nc3cc(C(=O)NCCN4CCN(C(=O)CCC(=O)O)CC4)ccc3[nH]2)N(C)C(=O)[C@H](C(C)C)N(C)C(=O)[C@H](CC(C)C)N(C)C(=O)[C@H](CC(C)C)N(C)C(=O)[C@@H](C)NC(=O)[C@H](C)NC(=O)[C@H](CC(C)C)N(C)C(=O)[C@H](C(C)C)NC(=O)[C@H](CC(C)C)N(C)C(=O)CN(C)C1=O` [Compound 54], for which the IC50 at calcineurin is 7.2 µM; in test [1] it was 0.0071 µM. In the case of `CC[C@@H]1NC(=O)[C@H]([C@H](O)[C@H](C)Cc2nc3cc(C(=O)O)ccc3o2)N(C)C(=O)[C@H](C(C)C)N(C)C(=O)[C@H](CC(C)C)N(C)C(=O)[C@H](CC(C)C)N(C)C(=O)[C@@H](C)NC(=O)[C@H](C)NC(=O)[C@H](CC(C)C)N(C)C(=O)[C@H](C(C)C)NC(=O)[C@H](CC(C)C)N(C)C(=O)CN(C)C1=O` [Compound 6], the IC50 in test [1] came out at 0.7 µM.

As for `CC[C@@H]1NC(=O)[C@H]([C@H](O)[C@H](C)Cc2nc3cc(C(=O)NCCN4CCNCC4)ccc3[nH]2)N(C)C(=O)[C@H](C(C)C)N(C)C(=O)[C@H](CC(C)C)N(C)C(=O)[C@H](CC(C)C)N(C)C(=O)[C@@H](C)NC(=O)[C@H](C)NC(=O)[C@H](CC(C)C)N(C)C(=O)[C@H](C(C)C)NC(=O)[C@H](CC(C)C)N(C)C(=O)CN(C)C1=O` [Compound 64], the 50% inhibitory concentration (IC50) in test [1] was found to be 0.0172 µM. `CC[C@@H]1NC(=O)[C@H]([C@H](O)[C@H](C)Cc2nc3cc(C(=O)N[C@@H](CS)C(=O)N[C@@H](CS)C(N)=O)ccc3[nH]2)N(C)C(=O)[C@H](C(C)C)N(C)C(=O)[C@H](CC(C)C)N(C)C(=O)[C@H](CC(C)C)N(C)C(=O)[C@@H](C)NC(=O)[C@H](C)NC(=O)[C@H](CC(C)C)N(C)C(=O)[C@H](C(C)C)NC(=O)[C@H](CC(C)C)N(C)C(=O)CN(C)C1=O` [Compound 61]: in test [1], the half-inhibitory concentration (IC50) was ~0.01 µM.

Consider `CC[C@@H]1NC(=O)[C@H]([C@H](O)[C@H](C)Cc2nc3cc(C(=O)N4CCCC4C(=O)N4CCC[C@H]4C(=O)N4CCCC4C(=O)N4CCC[C@H]4C(=O)N4CCCC4C(=O)N4CCC[C@H]4C(=O)O)ccc3[nH]2)N(C)C(=O)[C@H](C(C)C)N(C)C(=O)[C@H](CC(C)C)N(C)C(=O)[C@H](CC(C)C)N(C)C(=O)[C@@H](C)NC(=O)[C@H](C)NC(=O)[C@H](CC(C)C)N(C)C(=O)[C@H](C(C)C)NC(=O)[C@H](CC(C)C)N(C)C(=O)CN(C)C1=O` (some centres unmarked) [Compound 49], for which the IC50 on calcineurin is > 10 µM; in test [1], 0.0309 µM.

In the case of `CC[C@@H]1NC(=O)[C@H]([C@H](O)[C@H](C)Cc2nc3cc(C(=O)N[C@@H](CS)C(=O)N[C@@H](C)C(N)=O)ccc3[nH]2)N(C)C(=O)[C@H](C(C)C)N(C)C(=O)[C@H](CC(C)C)N(C)C(=O)[C@H](CC(C)C)N(C)C(=O)[C@@H](C)NC(=O)[C@H](C)NC(=O)[C@H](CC(C)C)N(C)C(=O)[C@H](C(C)C)NC(=O)[C@H](CC(C)C)N(C)C(=O)CN(C)C1=O` [Compound 60], the IC50 in test [1] is ~0.01 µM. Same read-out and setting: to `CC[C@@H]1NC(=O)[C@H]([C@H](O)[C@H](C)Cc2nc3cc(C(=O)N[C@@H](CCC(=O)OCc4ccccc4)C(=O)N[C@@H](CCC(=O)OCc4ccccc4)C(N)=O)ccc3[nH]2)N(C)C(=O)[C@H](C(C)C)N(C)C(=O)[C@H](CC(C)C)N(C)C(=O)[C@H](CC(C)C)N(C)C(=O)[C@@H](C)NC(=O)[C@H](C)NC(=O)[C@H](CC(C)C)N(C)C(=O)[C@H](C(C)C)NC(=O)[C@H](CC(C)C)N(C)C(=O)CN(C)C1=O` [Compound 57] belongs 0.0169 µM.

For `CC[C@@H]1NC(=O)[C@H]([C@H](O)[C@H](C)Cc2nc3cc(C(=O)NCCN(C)C)ccc3[nH]2)N(C)C(=O)[C@H](C(C)C)N(C)C(=O)[C@H](CC(C)C)N(C)C(=O)[C@H](CC(C)C)N(C)C(=O)[C@@H](C)NC(=O)[C@H](C)NC(=O)[C@H](CC(C)C)N(C)C(=O)[C@H](C(C)C)NC(=O)[C@H](CC(C)C)N(C)C(=O)CN(C)C1=O` [Compound 52], the half-maximal inhibitory concentration (IC50) was > 10 µM on calcineurin and 0.008 µM in test [1]. For `CC[C@@H]1NC(=O)[C@H]([C@H](O)[C@H](C)Cc2nc3cc(C(=O)NCCOCCOCCNC(=O)CCC(=O)O)ccc3[nH]2)N(C)C(=O)[C@H](C(C)C)N(C)C(=O)[C@H](CC(C)C)N(C)C(=O)[C@H](CC(C)C)N(C)C(=O)[C@@H](C)NC(=O)[C@H](C)NC(=O)[C@H](CC(C)C)N(C)C(=O)[C@H](C(C)C)NC(=O)[C@H](CC(C)C)N(C)C(=O)CN(C)C1=O` [Compound 68], the 50% inhibitory concentration (IC50) is > 10 µM at calcineurin and 0.0085 µM in test [1].

As for `CC[C@@H]1NC(=O)[C@H]([C@H](O)[C@H](C)Cc2nc3cc(C(=O)N[C@@H](CO)C(=O)N[C@@H](CCC(=O)O)C(N)=O)ccc3[nH]2)N(C)C(=O)[C@H](C(C)C)N(C)C(=O)[C@H](CC(C)C)N(C)C(=O)[C@H](CC(C)C)N(C)C(=O)[C@@H](C)NC(=O)[C@H](C)NC(=O)[C@H](CC(C)C)N(C)C(=O)[C@H](C(C)C)NC(=O)[C@H](CC(C)C)N(C)C(=O)CN(C)C1=O` [Compound 62], the IC50 in test [1] amounted to 0.0044 µM. With `CC[C@@H]1NC(=O)[C@H]([C@H](O)[C@H](C)Cc2nc3cc(C(=O)NCCN4CCOCC4)ccc3[nH]2)N(C)C(=O)[C@H](C(C)C)N(C)C(=O)[C@H](CC(C)C)N(C)C(=O)[C@H](CC(C)C)N(C)C(=O)[C@@H](C)NC(=O)[C@H](C)NC(=O)[C@H](CC(C)C)N(C)C(=O)[C@H](C(C)C)NC(=O)[C@H](CC(C)C)N(C)C(=O)CN(C)C1=O` [Compound 53], the figures for the half-inhibitory concentration (IC50) (at calcineurin; in test [1]) were 4.2 µM and 0.0127 µM, respectively. For the compound `CC[C@@H]1NC(=O)[C@H]([C@H](O)[C@H](C)Cc2nc3cccc(C(=O)O)c3n2C)N(C)C(=O)[C@H](C(C)C)N(C)C(=O)[C@H](CC(C)C)N(C)C(=O)[C@H](CC(C)C)N(C)C(=O)[C@@H](C)NC(=O)[C@H](C)NC(=O)[C@H](CC(C)C)N(C)C(=O)[C@H](C(C)C)NC(=O)[C@H](CC(C)C)N(C)C(=O)CN(C)C1=O` [Compound 55], the IC50 on calcineurin is > 10 µM; in test [1], 0.209 µM. For `CC[C@@H]1NC(=O)[C@H]([C@H](O)[C@H](C)Cc2nc3cc(C(=O)Oc4ccccc4C(=O)O)ccc3[nH]2)N(C)C(=O)[C@H](C(C)C)N(C)C(=O)[C@H](CC(C)C)N(C)C(=O)[C@H](CC(C)C)N(C)C(=O)[C@@H](C)NC(=O)[C@H](C)NC(=O)[C@H](CC(C)C)N(C)C(=O)[C@H](C(C)C)NC(=O)[C@H](CC(C)C)N(C)C(=O)CN(C)C1=O` [Compound 65], in that order: > 10 µM and 0.0202 µM. As to `CC[C@@H]1NC(=O)[C@H]([C@H](O)[C@H](C)CC2=N[C@@H]3CS[C@H](CCCCC(=O)O)[C@@H]3N2)N(C)C(=O)[C@H](C(C)C)N(C)C(=O)[C@H](CC(C)C)N(C)C(=O)[C@H](CC(C)C)N(C)C(=O)[C@@H](C)NC(=O)[C@H](C)NC(=O)[C@H](CC(C)C)N(C)C(=O)[C@H](C(C)C)NC(=O)[C@H](CC(C)C)N(C)C(=O)CN(C)C1=O` [Compound 4], the 50% inhibitory concentration (IC50) is > 10 µM on calcineurin and 0.264 µM in test [1]. Regarding `CC[C@@H]1NC(=O)[C@H]([C@H](O)[C@H](C)Cc2nc3cc(C(=O)NCCC(=O)NCCC(=O)NCCC(=O)NCCC(=O)NCCC(=O)NCCC(=O)O)ccc3[nH]2)N(C)C(=O)[C@H](C(C)C)N(C)C(=O)[C@H](CC(C)C)N(C)C(=O)[C@H](CC(C)C)N(C)C(=O)[C@@H](C)NC(=O)[C@H](C)NC(=O)[C@H](CC(C)C)N(C)C(=O)[C@H](C(C)C)NC(=O)[C@H](CC(C)C)N(C)C(=O)CN(C)C1=O` [Compound 51], the IC50 was > 10 µM on calcineurin and 0.0073 µM in test [1].

Take `CC[C@@H]1NC(=O)[C@H]([C@H](O)[C@H](C)Cc2nc3c(C(=O)O)cccc3n2C)N(C)C(=O)[C@H](C(C)C)N(C)C(=O)[C@H](CC(C)C)N(C)C(=O)[C@H](CC(C)C)N(C)C(=O)[C@@H](C)NC(=O)[C@H](C)NC(=O)[C@H](CC(C)C)N(C)C(=O)[C@H](C(C)C)NC(=O)[C@H](CC(C)C)N(C)C(=O)CN(C)C1=O` [Compound 56]: the IC50 was > 10 µM at calcineurin and > 1 µM in test [1]. `CC[C@@H]1NC(=O)[C@H]([C@H](O)[C@H](C)Cc2nc3cc(/C=C/C(=O)OC(C)(C)C)ccc3[nH]2)N(C)C(=O)[C@H](C(C)C)N(C)C(=O)[C@H](CC(C)C)N(C)C(=O)[C@H](CC(C)C)N(C)C(=O)[C@@H](C)NC(=O)[C@H](C)NC(=O)[C@H](CC(C)C)N(C)C(=O)[C@H](C(C)C)NC(=O)[C@H](CC(C)C)N(C)C(=O)CN(C)C1=O` [Compound 14]: the IC50 at calcineurin came out at 3.2 µM; in test [1] it was 0.0364 µM.

Regarding `CC[C@@H]1NC(=O)[C@H]([C@H](O)[C@H](C)Cc2nc3cc(C(=O)NCCOCCOCCNC(=O)[C@@H]4C[C@H](C(=O)O)C[C@H](C(=O)O)C4)ccc3[nH]2)N(C)C(=O)[C@H](C(C)C)N(C)C(=O)[C@H](CC(C)C)N(C)C(=O)[C@H](CC(C)C)N(C)C(=O)[C@@H](C)NC(=O)[C@H](C)NC(=O)[C@H](CC(C)C)N(C)C(=O)[C@H](C(C)C)NC(=O)[C@H](CC(C)C)N(C)C(=O)CN(C)C1=O` [Compound 67], the concentration for half-maximal inhibition (IC50) is > 10 µM on calcineurin and 0.0084 µM in test [1].

In general, IC50 refers to the point on the concentration scale where inhibition reaches its midpoint.
